In ChEMBL document CHEMBL1201862, “PubChem BioAssay data set” (2004):
Calls of active or inactive are those of the source.

Legend:
[1] = biological target: T1, Intestinal-type alkaline phosphatase (Homo sapiens, UniProt P09923); assay: inhibition of human intestinal alkaline phosphatase – biochemical, luminescent, uHTS hits, set 2, dose response (AID 488793); type: functional
[2] = biological target: T1, Intestinal-type alkaline phosphatase; assay: Dose Response confirmation of uHTS hits from a small molecule inhibitors of human intestinal alkaline phosphatase via a luminescent assay. [Related pubchem assays (depositor defined):AID2544, AID2574]; type: functional
[3] = biological target: T2, Intestinal-type alkaline phosphatase (Mus musculus, UniProt P24822); assay: PubChem AID 488874; type: functional
[4] = biological target: T3, Alkaline phosphatase, tissue-nonspecific isozyme (Homo sapiens, UniProt P05186); assay: inhibition of tissue-nonspecific alkaline phosphatase – biochemical, dose response (AID 488882); type: functional
T3 sequence (P05186 whole entry): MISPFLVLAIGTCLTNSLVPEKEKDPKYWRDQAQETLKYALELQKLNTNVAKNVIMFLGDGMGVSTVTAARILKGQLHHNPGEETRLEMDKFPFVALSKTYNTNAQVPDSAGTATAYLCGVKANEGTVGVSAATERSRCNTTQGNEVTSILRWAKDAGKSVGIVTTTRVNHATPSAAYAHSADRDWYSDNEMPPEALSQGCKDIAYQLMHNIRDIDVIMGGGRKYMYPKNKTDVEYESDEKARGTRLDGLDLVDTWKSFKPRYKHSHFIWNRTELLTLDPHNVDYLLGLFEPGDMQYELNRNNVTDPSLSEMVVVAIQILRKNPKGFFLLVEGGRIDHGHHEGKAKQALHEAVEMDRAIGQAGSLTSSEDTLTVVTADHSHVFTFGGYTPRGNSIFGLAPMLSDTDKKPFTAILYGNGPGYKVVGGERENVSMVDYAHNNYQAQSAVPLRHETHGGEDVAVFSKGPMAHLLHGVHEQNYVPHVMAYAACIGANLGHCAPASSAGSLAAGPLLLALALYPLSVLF

[5] = biological target: T4, SUMO-activating enzyme (Homo sapiens, UniProt Q9UBT2); assay: blockers of SAE1/SAE2–UBC9 SUMO transfer – biochemical, HTRF, uHTS, primary screen (AID 2006); type: protein-complex assay
[6] = biological target: SUMO E1/E2 (Homo sapiens, UniProt P63279+Q9UBE0+Q9UBT2); assay: SAR analysis of SUMOylation using HTRF in an in-Vitro dose response assay. [Related pubchem assays (depositor defined):AID2006, AID2011, AID2018, AID2069, AID2658]; type: functional
[7] = biological target: T4, SUMO-activating enzyme; assay: blockers of UBC9-mediated SUMO conjugation – biochemical, AlphaScreen, SUMOylation inhibitor project, confirmation (AID 2018); type: functional
[8] = biological target: T1, Intestinal-type alkaline phosphatase; assay: human intestinal alkaline phosphatase activators, dose response, biochemical, luminescence, uHTS hits (AID 463120); type: functional
[9] = biological target: T3, Alkaline phosphatase, tissue-nonspecific isozyme; assay: activation of tissue-nonspecific alkaline phosphatase – biochemical, TNAP isozyme, human IAP uHTS hits, selectivity assay for human IAP activator project, dose response (AID 488886); type: functional;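 also: potency of compounds raising TNAP activity as a selectivity check on IAP activators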
[10] = biological target: T2, Intestinal-type alkaline phosphatase; assay: PubChem AID 488875; type: functional
[11] = biological target: T1, Intestinal-type alkaline phosphatase; assay: activation of human intestinal alkaline phosphatase – biochemical, luminescent, uHTS hits, set 2, dose response (AID 488817); type: functional;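 also: potency of activators that raise enzyme activity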
[12] = T. cruzi infection blockers in NIH3T3 cells – beta-gal luminescence, NIH3T3 host cells, confirmation (AID 2630); type: functional, cell-based; settings: Mus musculus

T1 sequence (P09923 whole entry): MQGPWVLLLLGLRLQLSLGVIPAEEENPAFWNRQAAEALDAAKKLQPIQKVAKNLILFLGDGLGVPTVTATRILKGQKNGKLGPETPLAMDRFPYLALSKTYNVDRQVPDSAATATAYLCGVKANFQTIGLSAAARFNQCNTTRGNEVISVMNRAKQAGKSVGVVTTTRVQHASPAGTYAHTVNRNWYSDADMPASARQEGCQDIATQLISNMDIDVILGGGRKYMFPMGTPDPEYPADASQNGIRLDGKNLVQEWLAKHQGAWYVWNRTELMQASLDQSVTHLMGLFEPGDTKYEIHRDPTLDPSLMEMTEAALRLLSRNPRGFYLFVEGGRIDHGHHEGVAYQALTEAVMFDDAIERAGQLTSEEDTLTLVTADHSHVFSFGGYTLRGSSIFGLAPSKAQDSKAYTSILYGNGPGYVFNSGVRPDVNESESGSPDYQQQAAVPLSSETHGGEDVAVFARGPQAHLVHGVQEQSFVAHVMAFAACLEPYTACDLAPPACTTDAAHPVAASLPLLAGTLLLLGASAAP
T4 sequence (Q9UBE0 whole entry): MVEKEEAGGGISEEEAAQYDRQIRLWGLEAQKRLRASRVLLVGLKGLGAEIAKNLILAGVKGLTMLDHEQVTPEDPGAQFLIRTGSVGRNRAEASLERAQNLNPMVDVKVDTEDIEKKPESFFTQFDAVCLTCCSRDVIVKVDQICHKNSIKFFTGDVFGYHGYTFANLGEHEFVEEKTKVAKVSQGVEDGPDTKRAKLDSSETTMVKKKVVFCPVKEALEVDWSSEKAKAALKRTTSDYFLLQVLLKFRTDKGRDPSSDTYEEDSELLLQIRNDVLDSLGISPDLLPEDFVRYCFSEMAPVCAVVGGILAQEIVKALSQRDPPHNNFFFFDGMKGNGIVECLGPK
T4 sequence (Q9UBT2 whole entry): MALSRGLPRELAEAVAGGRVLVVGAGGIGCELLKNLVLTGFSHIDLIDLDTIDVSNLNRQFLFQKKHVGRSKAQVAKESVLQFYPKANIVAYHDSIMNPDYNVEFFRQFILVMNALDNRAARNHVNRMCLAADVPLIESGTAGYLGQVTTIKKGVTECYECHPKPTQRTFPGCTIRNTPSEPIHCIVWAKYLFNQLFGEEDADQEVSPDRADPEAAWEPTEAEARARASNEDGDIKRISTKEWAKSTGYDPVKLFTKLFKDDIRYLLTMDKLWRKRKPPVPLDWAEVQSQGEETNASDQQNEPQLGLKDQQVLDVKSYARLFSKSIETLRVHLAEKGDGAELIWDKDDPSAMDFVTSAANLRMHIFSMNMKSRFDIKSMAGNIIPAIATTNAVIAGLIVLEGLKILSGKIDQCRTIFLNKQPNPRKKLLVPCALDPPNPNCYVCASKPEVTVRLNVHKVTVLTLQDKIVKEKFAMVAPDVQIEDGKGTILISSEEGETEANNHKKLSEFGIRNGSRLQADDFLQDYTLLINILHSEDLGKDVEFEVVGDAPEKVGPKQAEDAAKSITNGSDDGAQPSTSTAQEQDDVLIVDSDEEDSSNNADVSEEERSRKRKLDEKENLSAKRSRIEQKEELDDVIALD
T2 sequence (P24822 whole entry): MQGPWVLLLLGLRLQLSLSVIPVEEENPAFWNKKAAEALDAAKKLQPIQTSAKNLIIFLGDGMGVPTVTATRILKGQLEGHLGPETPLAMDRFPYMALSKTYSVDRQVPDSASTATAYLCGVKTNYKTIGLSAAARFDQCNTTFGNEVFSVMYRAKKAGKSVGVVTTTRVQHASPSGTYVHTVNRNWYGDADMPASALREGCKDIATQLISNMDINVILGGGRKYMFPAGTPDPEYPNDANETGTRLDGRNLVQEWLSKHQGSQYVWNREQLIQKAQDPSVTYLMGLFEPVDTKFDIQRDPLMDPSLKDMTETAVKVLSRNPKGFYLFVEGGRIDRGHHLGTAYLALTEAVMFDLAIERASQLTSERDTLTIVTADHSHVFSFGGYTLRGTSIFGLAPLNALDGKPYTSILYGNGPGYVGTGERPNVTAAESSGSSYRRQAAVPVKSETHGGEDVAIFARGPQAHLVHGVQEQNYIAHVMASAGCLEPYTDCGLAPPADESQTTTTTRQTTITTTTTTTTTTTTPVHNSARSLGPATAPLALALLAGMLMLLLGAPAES
Chain of SUMO E1/E2 (Q9UBE0 whole entry): as the sequence (Q9UBE0 whole entry) above
Chain of SUMO E1/E2 (Q9UBT2 whole entry): as the sequence (Q9UBT2 whole entry) above
Chain of SUMO E1/E2 (P63279 whole entry): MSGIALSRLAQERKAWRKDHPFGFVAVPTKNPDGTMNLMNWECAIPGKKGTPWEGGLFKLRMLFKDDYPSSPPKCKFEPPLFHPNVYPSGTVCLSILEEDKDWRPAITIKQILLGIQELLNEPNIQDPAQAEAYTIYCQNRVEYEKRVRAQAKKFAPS

c1ccc(CSCCc2ccncc2)cc1
IC50 [1]: 23.4 µM (active)
IC50 [2]: 23.1 µM (inactive)
IC50 [3]: > 100 µM (inactive)
IC50 [4]: 47.9 µM (active)

COc1cc(C2c3c(oc4ccccc4c3=O)C(=O)N2c2nccs2)ccc1O (configuration not stated)
IC50 [5]: 36 µM (active)
IC50 [6]: 81.5 µM (active)
IC50 [7]: 12.7 µM (active)

COc1cc(OC)cc(C(=O)NNC(=O)c2nn(C)c(=O)c3ccccc23)c1
EC50 [8]: 11.8 µM (active)
EC50 [9]: 11.8 µM (active)
EC50 [10]: > 100 µM (inactive)
EC50 [11]: 12.4 µM (active)

CCn1cc(CN2CCCC(C(=O)c3cccc(C(F)(F)F)c3)C2)cn1 (configuration not stated)
EC50 [12]: 250 nM (active)
